Series [1] can be described thus: molar heat capacity at constant pressure. To be noted: 101.3 kPa, Liquid, Small sample (50 mg) DSC.
Series [2] can be described thus: molar heat capacity at constant pressure; xn = mol fraction of the nth substance listed. To be noted: 101.3 kPa, Liquid, Small sample (50 mg) DSC, x1 = 1.

Numbers after ± are expanded uncertainties.

The results in this text go back to the NIST ThermoML archive (doi:10.1021/je800248w).

Take `CCn1cc[n+](C)c1.O=S(=O)([O-])C(F)(F)F` [1-ethyl-3-methylimidazolium trifluoromethanesulfonate]: the “molar heat capacity at constant pressure” value in series [1] (283.15 K) is 353 ± 29 J/K/mol; in series [1] (293.15 K), 358 ± 29 J/K/mol; in series [1] (303.15 K) it was 366 ± 30 J/K/mol; in series [1] (313.15 K), 371 ± 30 J/K/mol; in series [1] (323.15 K) it was 376 ± 31 J/K/mol; in series [1] (333.15 K), 380 ± 31 J/K/mol. Further, the “molar heat capacity at constant pressure” value in series [1] (343.15 K) came to 384 ± 31 J/K/mol.

For `O` [water] + CCn1cc[n+](C)c1.O=C([O-])C(F)(F)F, the “molar heat capacity at constant pressure” value in series [2] (283.15 K), in series [2] (293.15 K), in series [2] (303.15 K), in series [2] (313.15 K), in series [2] (323.15 K) and in series [2] (333.15 K) was 75 ± 6 J/K/mol each time. In addition, the “molar heat capacity at constant pressure” value in series [2] (343.15 K) turned out to be 75 ± 6 J/K/mol.

For `O` [water] + CCn1cc[n+](C)c1.O=S(=O)([O-])C(F)(F)F, the “molar heat capacity at constant pressure” value in series [2] (283.15 K), in series [2] (293.15 K), in series [2] (303.15 K), in series [2] (313.15 K), in series [2] (323.15 K) and in series [2] (333.15 K) was 75 ± 6 J/K/mol throughout. For the same compound, the “molar heat capacity at constant pressure” value in series [2] (343.15 K) turned out to be 75 ± 6 J/K/mol.

With `CCOS(=O)(=O)[O-].CCn1cc[n+](C)c1` [1-ethyl-3-methylimidazolium ethyl sulfate], the “molar heat capacity at constant pressure” value in series [1] (283.15 K) is recorded as 365 ± 30 J/K/mol; in series [1] (293.15 K), 371 ± 30 J/K/mol; in series [1] (303.15 K) it was 380 ± 31 J/K/mol; in series [1] (313.15 K), 386 ± 31 J/K/mol; in series [1] (323.15 K), 392 ± 32 J/K/mol; in series [1] (333.15 K), 397 ± 32 J/K/mol. Also, the “molar heat capacity at constant pressure” value in series [1] (343.15 K) came to 403 ± 33 J/K/mol.

Take `O` [water] + CCOS(=O)(=O)[O-].CCn1cc[n+](C)c1: the “molar heat capacity at constant pressure” value in series [2] (283.15 K), in series [2] (293.15 K), in series [2] (303.15 K), in series [2] (313.15 K), in series [2] (323.15 K) and in series [2] (333.15 K) was 75 ± 6 J/K/mol in each case. In addition, the “molar heat capacity at constant pressure” value in series [2] (343.15 K) worked out at 75 ± 6 J/K/mol.

Consider `CCn1cc[n+](C)c1.O=C([O-])C(F)(F)F` [1-ethyl-3-methylimidazolium trifluoroacetate], for which the “molar heat capacity at constant pressure” value in series [1] (283.15 K) is 308 ± 25 J/K/mol; in series [1] (293.15 K), 313 ± 25 J/K/mol; in series [1] (303.15 K), 320 ± 26 J/K/mol; in series [1] (313.15 K), 324 ± 26 J/K/mol; in series [1] (323.15 K), 328 ± 27 J/K/mol; in series [1] (333.15 K), 332 ± 27 J/K/mol. Also, in series [1] (343.15 K), the “molar heat capacity at constant pressure” value is on record as 337 ± 27 J/K/mol.

With `O` [water], the “molar heat capacity at constant pressure” value in series [1] (283.15 K), in series [1] (293.15 K), in series [1] (303.15 K), in series [1] (313.15 K), in series [1] (323.15 K) and in series [1] (333.15 K) was 75 ± 6 J/K/mol each time. Moreover, in series [1] (343.15 K), the “molar heat capacity at constant pressure” value is listed as 75 ± 6 J/K/mol.
